Assay results from PMC8617627, “Novel DYRK1A Inhibitor Rescues Learning and Memory Deficits in a Mouse Model of Down Syndrome” (Pharmaceuticals, 2021).
Where two headings read alike, the source gives them in different places.

Assays:
Test in all cases: Kinase profile (33P ATP filter binding)
Assay type in all cases: biochemical
EPH-A4 = EPH-A4 (Homo sapiens, UniProt P54764); settings: read-out: Remaining protein kinase activity
IRAK4 = target: T1, IRAK4 (Homo sapiens, UniProt Q9NWZ3)
T1 sequence (Q9NWZ3 1-460): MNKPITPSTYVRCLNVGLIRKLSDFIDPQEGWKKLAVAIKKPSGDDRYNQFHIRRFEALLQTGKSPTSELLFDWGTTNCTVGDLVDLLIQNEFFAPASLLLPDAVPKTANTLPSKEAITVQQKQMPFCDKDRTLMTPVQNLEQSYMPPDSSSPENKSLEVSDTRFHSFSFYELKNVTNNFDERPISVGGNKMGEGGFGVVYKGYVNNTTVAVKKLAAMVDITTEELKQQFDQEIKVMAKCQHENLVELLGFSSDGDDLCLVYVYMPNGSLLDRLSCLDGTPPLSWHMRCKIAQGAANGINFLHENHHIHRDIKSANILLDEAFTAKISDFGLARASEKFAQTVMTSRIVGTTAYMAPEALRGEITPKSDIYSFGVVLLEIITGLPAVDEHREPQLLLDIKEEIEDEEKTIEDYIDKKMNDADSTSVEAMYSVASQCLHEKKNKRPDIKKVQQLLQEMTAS

HIPK2 = HIPK2 (Homo sapiens, UniProt Q9H2X6); settings: read-out: Remaining protein kinase activity
Chain of HIPK2 (Q9H2X6 whole entry): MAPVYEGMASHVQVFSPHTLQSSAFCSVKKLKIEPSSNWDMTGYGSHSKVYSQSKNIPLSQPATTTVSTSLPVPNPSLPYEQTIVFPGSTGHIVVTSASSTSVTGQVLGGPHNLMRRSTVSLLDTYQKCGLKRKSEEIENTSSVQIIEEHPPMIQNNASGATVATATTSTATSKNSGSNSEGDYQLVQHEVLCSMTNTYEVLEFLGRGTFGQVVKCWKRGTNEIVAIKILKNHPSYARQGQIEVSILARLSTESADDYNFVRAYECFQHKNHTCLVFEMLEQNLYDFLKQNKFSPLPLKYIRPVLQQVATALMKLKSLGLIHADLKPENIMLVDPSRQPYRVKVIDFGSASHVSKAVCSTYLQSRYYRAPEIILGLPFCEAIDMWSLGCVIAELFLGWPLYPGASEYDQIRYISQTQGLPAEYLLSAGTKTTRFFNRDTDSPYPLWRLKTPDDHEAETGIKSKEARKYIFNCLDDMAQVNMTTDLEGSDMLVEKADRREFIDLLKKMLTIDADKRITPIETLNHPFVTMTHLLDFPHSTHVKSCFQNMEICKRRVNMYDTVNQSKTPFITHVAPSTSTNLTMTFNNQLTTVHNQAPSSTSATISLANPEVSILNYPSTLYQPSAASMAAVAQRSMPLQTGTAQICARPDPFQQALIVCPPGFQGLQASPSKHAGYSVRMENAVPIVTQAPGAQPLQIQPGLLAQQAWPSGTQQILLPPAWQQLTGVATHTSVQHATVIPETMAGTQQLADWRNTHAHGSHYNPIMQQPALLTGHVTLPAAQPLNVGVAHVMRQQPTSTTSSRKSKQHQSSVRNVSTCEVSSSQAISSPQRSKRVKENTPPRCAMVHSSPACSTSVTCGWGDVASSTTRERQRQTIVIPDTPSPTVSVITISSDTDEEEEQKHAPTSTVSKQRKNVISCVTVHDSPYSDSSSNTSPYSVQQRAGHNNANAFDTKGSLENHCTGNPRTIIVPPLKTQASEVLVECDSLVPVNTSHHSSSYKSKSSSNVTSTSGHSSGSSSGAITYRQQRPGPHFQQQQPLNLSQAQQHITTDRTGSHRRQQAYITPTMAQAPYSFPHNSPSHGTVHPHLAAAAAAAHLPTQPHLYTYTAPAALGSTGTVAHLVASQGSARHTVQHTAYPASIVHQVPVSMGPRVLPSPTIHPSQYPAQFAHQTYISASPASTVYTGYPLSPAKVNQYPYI

CAMKKb = CAMKKb (Homo sapiens, UniProt Q96RR4); settings: read-out: Remaining protein kinase activity
Chain of CAMKKb (Q96RR4 whole entry): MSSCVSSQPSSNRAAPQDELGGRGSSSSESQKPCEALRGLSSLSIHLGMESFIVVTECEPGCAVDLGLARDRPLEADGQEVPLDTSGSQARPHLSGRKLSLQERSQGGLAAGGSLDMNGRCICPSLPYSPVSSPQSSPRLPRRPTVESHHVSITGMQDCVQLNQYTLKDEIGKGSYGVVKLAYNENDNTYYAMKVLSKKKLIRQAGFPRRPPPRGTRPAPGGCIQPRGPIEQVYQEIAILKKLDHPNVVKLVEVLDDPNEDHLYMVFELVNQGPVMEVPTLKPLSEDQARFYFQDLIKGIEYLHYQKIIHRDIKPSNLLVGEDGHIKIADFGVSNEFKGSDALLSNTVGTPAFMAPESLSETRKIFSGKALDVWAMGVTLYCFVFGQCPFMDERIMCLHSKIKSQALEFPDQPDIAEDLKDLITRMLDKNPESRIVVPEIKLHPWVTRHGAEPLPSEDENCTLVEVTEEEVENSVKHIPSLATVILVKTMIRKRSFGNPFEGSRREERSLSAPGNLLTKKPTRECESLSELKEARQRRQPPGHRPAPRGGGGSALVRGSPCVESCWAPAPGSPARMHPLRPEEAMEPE

IR = IR (Homo sapiens, UniProt P06213); settings: read-out: Remaining protein kinase activity
Chain of IR (P06213 28-1382): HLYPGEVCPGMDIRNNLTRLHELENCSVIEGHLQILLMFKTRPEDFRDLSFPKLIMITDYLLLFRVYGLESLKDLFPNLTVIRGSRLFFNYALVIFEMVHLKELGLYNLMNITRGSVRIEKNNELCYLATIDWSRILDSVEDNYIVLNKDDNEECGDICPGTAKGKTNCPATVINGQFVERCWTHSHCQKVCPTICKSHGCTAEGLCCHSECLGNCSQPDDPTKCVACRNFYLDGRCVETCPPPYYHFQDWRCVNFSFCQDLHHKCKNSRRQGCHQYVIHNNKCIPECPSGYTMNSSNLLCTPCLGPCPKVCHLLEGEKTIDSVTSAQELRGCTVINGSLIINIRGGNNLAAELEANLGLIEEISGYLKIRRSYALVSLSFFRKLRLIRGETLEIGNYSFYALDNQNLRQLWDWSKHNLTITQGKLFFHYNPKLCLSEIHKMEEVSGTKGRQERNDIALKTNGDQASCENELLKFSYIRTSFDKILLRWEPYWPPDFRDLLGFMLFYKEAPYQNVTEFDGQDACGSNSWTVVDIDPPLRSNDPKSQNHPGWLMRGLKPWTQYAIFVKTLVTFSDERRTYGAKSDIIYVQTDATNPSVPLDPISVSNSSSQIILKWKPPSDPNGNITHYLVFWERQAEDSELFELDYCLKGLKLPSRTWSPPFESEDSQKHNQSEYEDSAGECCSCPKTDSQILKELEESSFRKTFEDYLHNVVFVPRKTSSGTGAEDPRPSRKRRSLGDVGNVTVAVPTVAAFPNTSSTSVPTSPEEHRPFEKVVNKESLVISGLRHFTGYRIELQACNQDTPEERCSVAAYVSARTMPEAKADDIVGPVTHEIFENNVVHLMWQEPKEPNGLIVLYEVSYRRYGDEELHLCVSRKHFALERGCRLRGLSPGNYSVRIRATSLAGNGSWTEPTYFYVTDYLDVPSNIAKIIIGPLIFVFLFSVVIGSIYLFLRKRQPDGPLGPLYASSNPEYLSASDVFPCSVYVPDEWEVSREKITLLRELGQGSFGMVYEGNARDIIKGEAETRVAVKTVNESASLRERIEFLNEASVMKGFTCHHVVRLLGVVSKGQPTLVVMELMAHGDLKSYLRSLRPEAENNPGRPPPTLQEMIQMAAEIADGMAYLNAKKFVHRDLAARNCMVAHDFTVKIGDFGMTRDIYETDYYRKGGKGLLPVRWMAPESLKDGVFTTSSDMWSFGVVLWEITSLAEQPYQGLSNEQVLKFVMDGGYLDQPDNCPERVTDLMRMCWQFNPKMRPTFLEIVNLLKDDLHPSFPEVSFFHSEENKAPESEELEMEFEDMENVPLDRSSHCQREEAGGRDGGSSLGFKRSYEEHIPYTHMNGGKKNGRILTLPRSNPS

ULK2 = target: T2, ULK2 (Homo sapiens, UniProt Q8IYT8); settings: read-out: Remaining protein kinase activity
T2 sequence (Q8IYT8 1-1036): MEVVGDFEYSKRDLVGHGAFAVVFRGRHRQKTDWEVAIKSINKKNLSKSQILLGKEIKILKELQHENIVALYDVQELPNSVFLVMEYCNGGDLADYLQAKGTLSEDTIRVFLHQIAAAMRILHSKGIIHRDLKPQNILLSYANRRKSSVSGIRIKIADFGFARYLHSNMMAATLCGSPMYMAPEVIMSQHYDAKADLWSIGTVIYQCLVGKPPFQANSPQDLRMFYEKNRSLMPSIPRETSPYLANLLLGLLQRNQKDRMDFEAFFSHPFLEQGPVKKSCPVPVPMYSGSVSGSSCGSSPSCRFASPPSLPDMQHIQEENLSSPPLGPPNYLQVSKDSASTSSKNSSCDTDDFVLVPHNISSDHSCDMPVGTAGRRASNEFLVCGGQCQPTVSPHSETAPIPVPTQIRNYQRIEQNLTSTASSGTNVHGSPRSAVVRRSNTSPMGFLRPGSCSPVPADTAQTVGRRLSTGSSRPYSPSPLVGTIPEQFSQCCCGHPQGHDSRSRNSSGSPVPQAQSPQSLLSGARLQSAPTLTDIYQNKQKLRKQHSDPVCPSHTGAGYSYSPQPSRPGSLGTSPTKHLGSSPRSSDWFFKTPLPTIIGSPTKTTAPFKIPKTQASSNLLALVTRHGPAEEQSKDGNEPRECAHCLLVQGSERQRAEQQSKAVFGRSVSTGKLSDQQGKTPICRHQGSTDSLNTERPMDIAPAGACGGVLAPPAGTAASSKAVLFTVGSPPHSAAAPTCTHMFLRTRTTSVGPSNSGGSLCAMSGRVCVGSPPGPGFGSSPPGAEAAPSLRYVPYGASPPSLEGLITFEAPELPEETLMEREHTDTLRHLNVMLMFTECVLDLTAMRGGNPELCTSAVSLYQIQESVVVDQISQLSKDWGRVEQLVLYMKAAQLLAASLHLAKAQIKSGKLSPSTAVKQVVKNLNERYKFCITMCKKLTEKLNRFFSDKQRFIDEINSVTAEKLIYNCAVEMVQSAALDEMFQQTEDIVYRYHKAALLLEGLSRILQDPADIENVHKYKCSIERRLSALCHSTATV

PINK = target: T3, PINK (Tribolium castaneum, UniProt D6WMX4); settings: read-out: Remaining protein kinase activity
T3 sequence (D6WMX4 1-570): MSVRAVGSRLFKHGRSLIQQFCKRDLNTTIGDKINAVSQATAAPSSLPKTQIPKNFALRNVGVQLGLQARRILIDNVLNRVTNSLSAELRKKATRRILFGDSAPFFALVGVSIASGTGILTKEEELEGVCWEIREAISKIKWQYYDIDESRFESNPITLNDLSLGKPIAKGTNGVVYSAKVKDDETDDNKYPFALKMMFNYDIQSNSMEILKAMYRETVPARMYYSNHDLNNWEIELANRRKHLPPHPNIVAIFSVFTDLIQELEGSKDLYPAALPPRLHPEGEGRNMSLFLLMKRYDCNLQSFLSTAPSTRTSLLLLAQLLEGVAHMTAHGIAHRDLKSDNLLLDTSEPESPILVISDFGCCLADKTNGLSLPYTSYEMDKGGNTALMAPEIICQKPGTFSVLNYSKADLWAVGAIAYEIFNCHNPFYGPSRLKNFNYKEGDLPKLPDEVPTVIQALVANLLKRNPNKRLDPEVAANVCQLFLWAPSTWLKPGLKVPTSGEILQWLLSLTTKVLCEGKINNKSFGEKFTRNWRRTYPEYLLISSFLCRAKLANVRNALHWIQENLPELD

Chain of EPH-A4 (P54764 20-986): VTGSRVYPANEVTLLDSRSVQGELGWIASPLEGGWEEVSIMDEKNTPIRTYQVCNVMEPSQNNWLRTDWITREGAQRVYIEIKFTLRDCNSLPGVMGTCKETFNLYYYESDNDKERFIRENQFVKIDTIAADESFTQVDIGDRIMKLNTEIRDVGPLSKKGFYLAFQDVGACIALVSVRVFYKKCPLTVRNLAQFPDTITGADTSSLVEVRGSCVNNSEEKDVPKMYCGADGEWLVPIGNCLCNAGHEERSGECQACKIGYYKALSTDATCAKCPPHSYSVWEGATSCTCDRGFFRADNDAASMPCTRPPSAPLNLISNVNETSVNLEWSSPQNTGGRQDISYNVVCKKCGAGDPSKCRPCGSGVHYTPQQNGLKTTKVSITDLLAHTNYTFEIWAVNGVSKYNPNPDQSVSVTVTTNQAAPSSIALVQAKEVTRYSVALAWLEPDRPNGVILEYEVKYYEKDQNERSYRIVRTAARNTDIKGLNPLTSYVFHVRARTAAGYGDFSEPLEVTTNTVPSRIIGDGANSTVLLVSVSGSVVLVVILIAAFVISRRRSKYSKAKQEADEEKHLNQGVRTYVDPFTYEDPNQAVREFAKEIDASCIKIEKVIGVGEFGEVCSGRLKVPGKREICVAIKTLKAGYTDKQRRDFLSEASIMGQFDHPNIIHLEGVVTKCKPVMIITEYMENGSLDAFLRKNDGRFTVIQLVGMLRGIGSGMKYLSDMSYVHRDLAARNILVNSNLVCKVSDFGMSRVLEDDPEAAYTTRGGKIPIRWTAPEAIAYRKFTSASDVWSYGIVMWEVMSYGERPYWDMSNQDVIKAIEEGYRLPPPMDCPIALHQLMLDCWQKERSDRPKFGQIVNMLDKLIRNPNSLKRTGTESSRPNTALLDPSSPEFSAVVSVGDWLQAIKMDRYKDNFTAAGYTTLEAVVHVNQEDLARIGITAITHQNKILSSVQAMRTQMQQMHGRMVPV

`COc1ccc2sc(-c3cncc(NC(C)=O)c3)nc2c1` [PST-001, N-(5-(5-Methoxybenzo[d]thiazol-2-yl)pyridin-3-yl)acetamide] was tested, and the remaining activity at 1 µM (EPH-A4) was 117%, the remaining activity at 100 µM (EPH-A4) was 106% and the “Remaining protein kinase activity” value (IRAK4; 1 μM) was 88%. The “Remaining protein kinase activity” value (IRAK4; 100 μM) was 32%, the remaining activity at 1 µM (HIPK2) was 90% and the remaining activity at 100 µM (HIPK2) was 77%. It also gave a remaining activity at 1 µM (CAMKKb) of 104%, a remaining activity at 100 µM (CAMKKb) of 54% and a remaining activity at 1 µM (IR) of 116%. The remaining activity at 100 µM (IR) was 120%, the remaining activity at 1 µM (ULK2) was 111% and the remaining activity at 100 µM (ULK2) was 119%. It also gave a remaining activity at 1 µM (PINK) of 119% and a remaining activity at 100 µM (PINK) of 118%.
With `COc1ccc2sc(-c3cncc(N)c3)nc2c1` [compound 1, 5-(5-Methoxybenzo[d]thiazol-2-yl)pyridin-3-amine] the remaining activity at 1 µM (EPH-A4; EPH-A4, 1 μM) was 89%, the remaining activity at 100 µM (EPH-A4; EPH-A4, 100 μM) was 85% and the “Remaining protein kinase activity” value (IRAK4; 1 μM) was 85%. For the same compound, the “Remaining protein kinase activity” value (IRAK4; 100 μM) was 18%, the remaining activity at 1 µM (HIPK2; HIPK2, 1 μM) was 79% and the remaining activity at 100 µM (HIPK2; HIPK2, 100 μM) was 10%. For the same compound, the remaining activity at 1 µM (CAMKKb; CAMKKb, 1 μM) was 107%, the remaining activity at 100 µM (CAMKKb; CAMKKb, 100 μM) was 37% and the remaining activity at 1 µM (IR; IR, 1 μM) was 108%. It also gave a remaining activity at 100 µM (IR; IR, 100 μM) of 45%, a remaining activity at 1 µM (ULK2; ULK2, 1 μM) of 101% and a remaining activity at 100 µM (ULK2; ULK2, 100 μM) of 50%. It also gave a remaining activity at 1 µM (PINK) of 121% and a remaining activity at 100 µM (PINK) of 114%.
